Experimental data taken from article PMC10187093, “Synthesis, in silico modelling, and in vitro biological evaluation of substituted pyrazole derivatives as potential anti-skin cancer, anti-tyrosinase, and antioxidant agents” (Journal of Enzyme Inhibition and Medicinal Chemistry, 2023).
Read-outs that look alike come from different tables or passages of the source.

Key:
[1] = DPPH free radical scavenging assay; settings: for Percent Scavenging (DPPH): 1 mM
Procedure: An initial screen was done of all 25 derivatives at a concentration of 1 mM. […] Methanol was used as the diluent, and 100 µL of DPPH (200 µM; Sigma-Aldrich, St. Louis, MO) was added to each well. […] The scavenging capacity (SC) was calculated as SC% = ((ΔAcontrol – ΔAsample)/ΔAcontrol) × 100%, where ΔAcontrol was the absorbance of the reagent blank, and ΔAsample was the absorbance of the test samples. The control contained all reagents except the compounds, and all tests were performed in triplicate. Quercetin served as a positive control. The DPPH methanolic solution (1 mL) mixed with DMSO (5 µL) served as a negative control.

A375 = assay: MTT antiproliferative/cytotoxicity assay, A375; assay type: cell-based, human; settings: read-out: IC50 A375
Procedure: (§1) Human-derived GFP-expressing melanoma A375 and epidermoid carcinoma A431 cell lines were purchased from Angio-Proteomie (Boston, MA). Human melanoma carcinoma SK-MEL-28 and human immortalised keratinocytes (HaCaT) cell lines were acquired from American Type Culture Collection (ATCC; Manassas, VA). Human cutaneous SCC cell line SCC-12[192] was generously provided by Dr. James G. Rheinwald to Dr. Tatiana Efimova. Except SK-MEL-28, which was cultured in an RPMI-1640 medium supplemented with 5% FBS, all other human immortalised cell lines were grown and maintained in DMEM containing varying percentages of FBS; 5% FBS for A431, SCC-12, and HaCaT lines, and 10% FBS for A375. All culture media were routinely supplemented with 1% PEST 100X (100 U/mL penicillin, 100 μg/mL streptomycin), and cells were cultured in incubators maintained at 37 °C under an atmosphere of 95% humidity, 20% O2, and 5% CO2. The growth media of incubated cells were changed every 2–3 days until they attained 70–80% confluence, after which they were sub-cultured for experiments and re-passaging. DMSO was used as the vehicle to prepare a 10 mM stock solution of the test compounds.
(§2) Stock solutions (10 mM) were prepared by dissolving each compound to be screened in DMSO. From these stock solutions, escalating concentrations were prepared using the corresponding cell growth media as a diluent, and the cells (65–75% confluent) were treated with (0–40 µM) or without the drug in sext- to octuplicate and incubated for 48 h. All treatment protocols and controls were prepared as previously described.
(§3) The potency and cytotoxicity of the test compounds against two cutaneous melanoma (A375 and SK-MEL-28) and two non-melanoma (A431 and SCC-12) SC cell lines in addition to a control immortalised normal human epidermal keratinocytes (HaCaT) cell line were assessed by MTT assay as previously described.

SK-MEL-28 = assay: MTT antiproliferative/cytotoxicity assay, SK-MEL-28; assay type: cell-based, human; settings: read-out: IC50 SKMEL-28
Procedure: as §1, §2, §3

HaCaT = assay: MTT cytotoxicity assay, noncancerous HaCaT keratinocytes; assay type: cell-based, human; settings: 48 h, read-out: IC50 HaCaT
Procedure: as §1, §2, §3

GFP-A431 = assay: MTT antiproliferative/cytotoxicity assay, A431; assay type: cell-based, human; settings: for IC50: read-out: IC50 GFP-A431
Procedure: (§4) Human-derived GFP-expressing melanoma A375 and epidermoid carcinoma A431 cell lines were purchased from Angio-Proteomie (Boston, MA). Human melanoma carcinoma SK-MEL-28 and human immortalised keratinocytes (HaCaT) cell lines were acquired from American Type Culture Collection (ATCC; Manassas, VA). […] The growth media of incubated cells were changed every 2–3 days until they attained 70–80% confluence, after which they were sub-cultured for experiments and re-passaging. DMSO was used as the vehicle to prepare a 10 mM stock solution of the test compounds.
(§5) Stock solutions (10 mM) were prepared by dissolving each compound to be screened in DMSO.

SCC-12 = assay: MTT antiproliferative/cytotoxicity assay, SCC-12; assay type: cell-based, human; settings: for IC50: read-out: IC50 SCC-12
Procedure: as §4, §5

mushroom tyrosinase = biological target: T1, mushroom tyrosinase (Agaricus bisporus, UniProt C7FF04); assay: In vitro mushroom tyrosinase inhibition assay; assay type: biochemical; settings: for inhibition at 500 µM: read-out: % Inhibition of tyrosinase; for IC50: > 500 = not biologically relevant
T1 construct: purchased Sigma-Aldrich Chemical Company (St. Louis, MO) and MP Biomedicals (Irvine, CA)
T1 sequence (C7FF04 1-392 limits assumed): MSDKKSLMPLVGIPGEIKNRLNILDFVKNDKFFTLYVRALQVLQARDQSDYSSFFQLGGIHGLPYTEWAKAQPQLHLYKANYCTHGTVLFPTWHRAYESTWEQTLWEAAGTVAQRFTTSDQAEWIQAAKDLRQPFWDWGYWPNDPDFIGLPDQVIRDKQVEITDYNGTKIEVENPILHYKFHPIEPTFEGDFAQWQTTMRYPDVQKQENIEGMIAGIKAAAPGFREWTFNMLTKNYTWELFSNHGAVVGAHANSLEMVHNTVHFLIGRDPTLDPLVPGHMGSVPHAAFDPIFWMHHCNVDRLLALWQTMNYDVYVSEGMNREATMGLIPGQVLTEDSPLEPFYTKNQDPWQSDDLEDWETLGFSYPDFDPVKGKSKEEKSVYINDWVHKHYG
Procedure: The anti-tyrosinase potential of all the synthesised derivatives was determined by an enzymatic tyrosinase inhibition assay based on their ability to inhibit the substrate, L-tyrosine, from binding to the tyrosinase enzyme. […] Test samples were dissolved in DMSO at a concentration of 10 mM and then diluted to different concentrations with phosphate buffer (0.1 M, pH 6.8). Each well contained 40 µL of the sample with 80 µL of phosphate buffer solution (0.1 M, pH 6.8), 40 µL of tyrosinase enzyme (100 units/mL), and 40 µL L-tyrosine (2.5 mM). The mixture was incubated for 30 min at room temperature, and absorbance was measured at 490 nm. Each sample was accompanied by a sample blank containing all components except tyrosinase. […] The percentage of tyrosinase inhibition was calculated as follows: ((ΔAcontrol – ΔAsample)/ΔAcontrol) × 100. IC50 values denoted the sample concentration required to inhibit 50% tyrosinase activity (Table S1).

[2] = read-out: IC50 DPPH radical scavenging
[3] = Homo sapiens, A-375, 48 h, melanoma, MTT, 48 h
[4] = Homo sapiens, HaCaT, control noncancerous keratinocytes, MTT
[5] = Homo sapiens, SCC12, 48 h, non-melanoma, MTT, 48 h
[6] = Homo sapiens, SK-MEL-28, 48 h, melanoma, MTT, 48 h
[7] = 500 µM, single-concentration screen
[8] = read-out: IC50 Value, mushroom tyrosinase inhibition (Table S1)
[9] = N.A. = No Activity, > 1000 = not biologically relevant, read-out: IC50 Value, DPPH antioxidant activity (Table S4)
[10] = Homo sapiens, A-431, 48 h, non-melanoma, MTT, 48 h
[11] = IC50 HaCaT divided by IC50 SCC-12
[12] = IC50 HaCaT divided by IC50 A431

Row | SMILES | IC50 (A375; [3]) | IC50 (HaCaT; [4]) | IC50 (SCC-12; [5]) | IC50 (SK-MEL-28; [6]) | inhibition at 500 µM (mushroom tyrosinase; [7]) | IC50 (mushroom tyrosinase; [8]) | Percent Scavenging (DPPH) [1] | IC50 (GFP-A431; [10]) | further results
1 | Cc1cc(C(C)(C)C)c(O)c(C(C)(C)C)c1 [BHT, butylated hydroxytoluene, reference compound] |  |  |  |  |  |  |  |  | IC50 [1, 2]: 285 ± 7 µM
2 | Cc1ccc(-c2cc(C(F)(F)F)nn2-c2ccc(S(N)(=O)=O)cc2)cc1 [Celecoxib, celecoxib, reference compound] | 27 µM | 49.8 ± 8.2 µM |  |  |  |  |  |  | IC50 (A375; melanoma, MTT, 48 h): 26.8 ± 2.7 µM; IC50 (SK-MEL-28; Homo sapiens, SK-MEL-28, melanoma, MTT, 48 h): 11.4 ± 2.4 µM; IC50 (GFP-A431; Homo sapiens, A-431, 48 h): 7.4 µM
3 | N.N.[Cl][Pt][Cl] [Cisplatin, cisplatin, reference compound] |  |  |  |  |  |  |  |  | IC50 (SCC-12; non-melanoma, MTT, 48 h): 4.4 ± 0.2 µM; IC50 (A375; melanoma, MTT, 48 h): 1.49 ± 0.44 µM; IC50 (SK-MEL-28; melanoma, MTT, 48 h): 14.2 ± 0.24 µM; IC50 (HaCaT; control noncancerous keratinocytes, MTT): 3.4 ± 0.4 µM; IC50 (GFP-A431; non-melanoma, MTT, 48 h): 7.7 ± 0.3 µM
4 | CCc1c(C)n[nH]c1C [P1, 4-Ethyl-3,5-dimethyl-1H-pyrazole] | 47.7 ± 4.2 µM | 60.5 ± 3.9 µM | 257 ± 18.4 µM | 42.8 ± 0.3 µM | 6.77% | > 500 µM | 5.85% | 41.6 ± 0.8 µM | IC50 [1, 9]: > 1000 µM
5 | Cc1n[nH]c2c1CCC2 [P2, 3-Methyl-1,4,5,6-tetrahydrocyclopenta[c]pyrazole] | 54.3 ± 1.6 µM | 44.2 ± 1.1 µM | 246 ± 37.3 µM | 42.6 ± 1.5 µM | 20.8% | > 500 µM | -5.84% | 43.9 ± 2.1 µM | 
6 | Cc1cc(-c2ccccc2)n[nH]1 [P3, 5-Methyl-3-phenyl-1H-pyrazole] | 54.8 ± 2.7 µM | 42.1 ± 3.4 µM | 546 ± 20.7 µM | 59.1 ± 4.6 µM | 42.6% | > 500 µM | -0.39% | 27.2 ± 0.9 µM | selectivity index (SI) SCC-12 (SCC-12): 546.5 ± 20.7 (0.1); selectivity index (SI) A431 (GFP-A431): 27.2 ± 0.9 (1.6)
7 | Cc1[nH]nc(-c2ccccc2)c1Cl [P4, 4-Chloro-5-methyl-3-phenyl-1H-pyrazole] | 58.4 ± 4.5 µM | 76.1 µM | 216 ± 13.4 µM | 62.3 ± 2.7 µM | 68.7 ± 0.4% | 197 µM | -0.84% | 70.8 ± 6.2 µM | 
8 | Cc1[nH]nc2c1CCc1ccccc1-2 [P5, 3-Methyl-4,5-dihydro-2H-benzo[g]indazole] | 65.3 ± 4.2 µM | 265 ± 4.3 µM | 77.6 ± 1.7 µM | 131 ± 2.4 µM | 40% | > 500 µM | -10.48% | 42.1 ± 3.1 µM | selectivity index (SI) SCC-12 (SCC-12; [11]): 3.4; DPPH antioxidant activity (in words) [1]: inactivity; selectivity index (SI) A431 (GFP-A431; [12]): 6.3
9 | Cc1[nH]nc2c1ccc1ccccc12 [P6, 3-Methyl-2H-benzo[g]indazole] | 114 ± 3.3 µM | 147.2 ± 0.8 µM | 49.9 ± 3.4 µM | 47.4 ± 1.2 µM | 81.7 ± 0.7% | > 500 µM | 65.17% | 69.8 ± 7.5 µM | selectivity index (SI) SCC-12 (SCC-12; [11]): 3.0; IC50 [1, 9]: 30.6 µM; IC50 [1, 2]: 30.6 ± 2.1 µM; selectivity index (SI) A431 (GFP-A431; [12]): 2.1
10 | CCc1c(C)nn(-c2ccccc2)c1C [P7, 4-Ethyl-3,5-dimethyl-1-phenyl-1H-pyrazole] | 53.3 ± 4.2 µM | 59.2 ± 3.5 µM | 43 ± 2.1 µM | 46 ± 1 µM | 55.5% | > 500 µM | 15.47% | 47.8 ± 2 µM | IC50 [1, 9]: > 1000 µM
11 | Cc1nn(-c2ccccc2)c2c1CCC2 [P8, 3-Methyl-1-phenyl-1,4,5,6-tetrahydrocyclopenta[c]pyrazole] | 55.3 ± 3.8 µM | 44.5 ± 1.4 µM | 120 ± 8.5 µM | 181 ± 4.7 µM | 67.2 ± 0.2% | 190 µM | -2.57% | 72.2 ± 5.2 µM | 
12 | Cc1c2c(nn1-c1ccccc1)-c1ccccc1CC2 [P9, 3-Methyl-2-phenyl-4,5-dihydro-2H-benzo[g]indazole] | 45.2 ± 2 µM | 43.6 ± 1.4 µM | 28.8 ± 1.4 µM | 40.8 ± 1 µM | 9.49% | > 500 µM | 5.48% | 28 ± 3.6 µM | selectivity index (SI) SCC-12 (SCC-12; [11]): 1.5; IC50 [1, 9]: > 1000 µM; selectivity index (SI) A431 (GFP-A431; [12]): 1.6
13 | CCOC(=O)c1c(C)nn(-c2ccccc2)c1C [P10, Ethyl 3,5-dimethyl-1-phenyl-1H-pyrazole-4-carboxylate] |  |  |  |  |  |  | -11.90% |  | IC50 (SCC-12; Homo sapiens, SCC12, 48 h): 49.1 ± 2 µM; IC50 (A375; Homo sapiens, A-375, 48 h): 55.3 ± 2.5 µM; IC50 (SK-MEL-28; Homo sapiens, SK-MEL-28, 48 h): 43.7 ± 2.7 µM; IC50 (mushroom tyrosinase; IC50 Value, mushroom tyrosinase inhibition (Table S1)): > 500 µM; inhibition at 500 µM (mushroom tyrosinase): 31%; IC50 (HaCaT; Homo sapiens, HaCaT): 68 ± 1.2 µM; IC50 (GFP-A431; Homo sapiens, A-431, 48 h): 196 ± 3.8 µM
14 | Cc1cc(-c2ccccc2)no1 [P11, 5-Methyl-3-phenylisoxazole] | 57.8 ± 6.5 µM | 116 ± 10.1 µM | 44.6 ± 1.3 µM | 34.5 ± 1.2 µM | 88 ± 0.3% | 173 µM | -27.39% | 43.7 ± 2.7 µM | selectivity index (SI) SCC-12 (SCC-12; [11]): 2.6; selectivity index (SI) A431 (GFP-A431; [12]): 2.6
15 | Cc1cc(-c2ccccc2)n(-c2ccc(S(N)(=O)=O)cc2)n1 [P19, 4-(3-Methyl-5-phenyl-1H-pyrazol-1-yl)benzenesulfonamide] | 47.1 ± 4.2 µM | 57 ± 1.3 µM |  | 40.5 ± 3 µM | 21.2% | > 500 µM | -18.51% |  | 
16 | OC[C@H]1O[C@@H](Oc2ccc(O)cc2)[C@H](O)[C@@H](O)[C@@H]1O [arbutin, 4-hydroxyphenyl β-D-glucopyranoside, reference compound] |  |  |  |  | 59 ± 0.4% |  |  |  | 
17 | O=C1O[C@H]([C@@H](O)CO)C(O)=C1O [ascorbic acid, reference compound] |  |  |  |  |  |  |  |  | IC50 [1, 2]: 25.2 ± 1.4 µM
18 | O=c1c(O)c(-c2ccc(O)c(O)c2)oc2cc(O)cc(O)c12 [quercetin, reference compound] |  |  |  |  |  |  | 60% |  | Percent Scavenging (DPPH) ([1]; listed as Quercetin): 60.83%
